Test results reported in US8394398B2 (Abbott Laboratories, priority 1997, dated 2013).

How the values were obtained:
[1] = pharmacokinetics after a single intravenous dose in cynomolgus monkey; type: in vivo; details: single 2.5 mg/kg intravenous dose, blood, n=3
[2] = test system: human coronary artery smooth muscle cells (hCaSMC); experiment: cytokine production by TNFα-treated human coronary artery smooth muscle cells (ELISA); type: cell-based; details: TNFα (5 ng/ml), 24 hours; for Maximal Inhibitory Activity, IL-6 / Maximal Inhibitory Activity, Il-8 / Maximal Inhibitory Activity, MCP-1: hCaSMC
Protocol: (§1) Experiments were performed to determine the effects of zotarolimus, sirolimus and dexamethasone on the production of TNFα, IL-6 and MCP-1 by activated human monocytes In addition to monocytes and macrophages two other key cell types are involved in the etiology of restenosis, arterial smooth muscle and endothelial cells. These cells are activated and produce cytokines in response to TNFα. […] The activation of cytokine production by human coronary artery smooth muscle and endothelial cells following TNFα treatment was determined by measuring interleukine-8 (IL-8), MCP-1 and IL-6 production. As shown by the results of the experiments described below, the ability of these compounds to inhibit the production of cytokines supports their use in combination as anti-restenotic agents since these cytokines play a role in the development of restenosis. […] After 24 hours, the supernatants were carefully collected and TNFα, IL-6 and MCP-1 levels determined by ELISA. Primary cultures of human coronary artery endothelial and smooth muscle cells were obtained from Cambrex and maintained as described by the vendor. […] After 24 hours the supernatants were removed and replaced with media containing TNFα (5 ng/ml) in the presence and absence of various concentrations of zotarolimus, dexamethasone or sirolimus. The cells were incubated for 24 hours and the supernatants carefully removed and frozen until measurement. Cytokine levels were measured in the supernatants by sandwich ELISA.

human monocytes = experiment: cytokine production by LPS-stimulated human monocytes (ELISA); type: cell-based; details: for MCP-1 production by human monocytes in vitro: FIG. 10; for production of TNFα and IL-6 by human monocytes: FIGS. 10 and 11; for Maximal Inhibitory Activity, IL-6 / Maximal Inhibitory Activity, MCP-1 / Maximal Inhibitory Activity, TNF: Monocytes, 24 hours
Protocol: as §1

[3] = test system: human coronary artery smooth muscle cells (hCaSMC); experiment: 3H-thymidine uptake proliferation assay, hCaSMC; type: cell-based; details: for effect on the antiproliferative activity of zotarolimus in hCaSMC: FIG. 12
Protocol: Experiments were performed to investigate interactions between zotarolimus and the corticosteroid dexamethasone. The effect of dexamethasone on the antiproliferative activity of zotarolimus in human coronary artery smooth muscle ([…]) and endothelial […] determined using an in vitro proliferation assay. The proliferation and migration of vascular smooth muscle cells into the vascular neointima is a characteristic pathologic response seen in restenotic lesions (A. Lafont and P. Libby, The smooth muscle cell: sinner or saint in restenosis and the acute coronary syndromes? […] As a result, in vitro assays which specifically measure the antiproliferative activity of candidate anti-restenotic compounds on human coronary artery smooth muscle and endothelial cells should predict potential anti-restenotic activity in vivo. The tritium incorporation assay is an accurate and sensitive method used in the art to determine cell number and proliferation. Compounds or combinations of compounds which attenuate growth factor-mediated human coronary artery smooth muscle cell […]) proliferation, as measured by the tritium incorporation assay in vitro, are candidate anti-restenotic agents. […] Cell proliferation was monitored by following incorporation of ^3H-thymidine into newly synthesized DNA of cells stimulated by serum and growth factors. Exponentially growing […] were seeded into 96-well flat bottom tissue culture plates at 5,000 cells/well (10,000 cells/well for […]). The cells were allowed to attach overnight. The growth medium was removed the following day and cells were washed twice with unsupplemented (basal) medium to remove traces of serum and growth factors. Basal medium (200 μl) was added to each well and the cells incubated in medium lacking growth factors and serum to starve and synchronize them in the G0 state. After starvation (48 hours for […] and 39 hours for […]) in medium lacking serum and growth factors, the cells were replenished with 200 μl supplemented medium in the absence or presence of drugs at the desired concentrations. […] After a 72-hour incubation period, 25 μl (1 μCi/well) of ^3H-thymidine (Amersham Biosciences) were added to each well. The cells were incubated at 37° C. for 16-18 hours to allow incorporation of ^3H-thymidine into newly synthesized DNA and the cells harvested onto 96-well plates containing bonded glass fiber filters using a cell harvester (Harvester 9600, TOMTEC). […] Controls included medium only, starved cells and cells in complete medium. Drug activity was established by determining the inhibition of ^3H-thymidine incorporation into newly synthesized DNA relative to cells grown in complete medium. […] The final IC50s are means of the 3-4 experiments. In these experiments, the x-axis represents the concentration of the drug being varied. For most of these curves that is zotarolimus alone and in combination with a fixed concentration of dexamethasone. Each graph contains a dexamethasone alone curve and a zotarolimus alone curve. The set of curves in each graph is generated by adding dexamethasone at a fixed concentration (1, 5, 10 or 25 nM) to various concentrations of zotarolimus (0, 0.04, 0.08, 0.8, 4, 8, 40 nM). Each curve represents the dose-response of zotarolimus (whose concentration is given on the x-axis) in the presence of the fixed concentration of dexamethasone given in the legend). […] The concentration eliciting a specific antiproliferative effect was determined using a 4-parameter equation (Equation 1). […]

[4] = test system: human coronary artery endothelial cells (hCaEC); experiment: cytokine production by TNFα-treated human coronary artery endothelial cells (ELISA); type: cell-based; details: TNFα (5 ng/ml), 24 hours
Protocol: as §1

[5] = test system: human coronary artery endothelial cells (hCaEC); experiment: 3H-thymidine uptake proliferation assay, hCaEC; type: cell-based
[6] = accelerated in vitro elution from PC-1036 coated stents; type: physicochemical

With “40-epi-N-[2′-pyridone]-rapamycin [Example 2-pyridone]” the AUC [1] was 2.55 ng·h/mL.
With C[C@@H]1C[C@H]2[C@@H]3CCC4=CC(=O)C=C[C@]4(C)[C@@]3(F)[C@@H](O)C[C@]2(C)[C@@]1(O)C(=O)CO [Dexamethasone] the “block of hCaSMC IL-6 production” value [2] was 65.7%, the “block of hCaSMC IL-8 production” value [2] was 68.4% and the “block of hCaSMC MCP-1 production” value [2] was 57.2%. For the same molecule, the “Maximal Inhibitory Activity, IL-6” value [2] was “+ (+ indicates maximal inhibitory activity of 50-75% of control)”, the “Maximal Inhibitory Activity, Il-8” value [2] was “+ (+ indicates maximal inhibitory activity of 50-75% of control)” and the “Maximal Inhibitory Activity, MCP-1” value [2] was “+ (+ indicates maximal inhibitory activity of 50-75% of control)”. The “MCP-1 production by human monocytes in vitro” value (human monocytes) was “dose-dependently inhibit MCP-1 production”, the “production of TNFα and IL-6 by human monocytes” value (human monocytes) was “potently blocks the production of TNFα and IL-6” and the “Maximal Inhibitory Activity, IL-6” value (human monocytes) was “+++ (+++ indicates maximal inhibitory activity of 75-100% of control)”. The “Maximal Inhibitory Activity, MCP-1” value (human monocytes) was “+ (+ indicates maximal inhibitory activity of 50-75% of control)”, the “Maximal Inhibitory Activity, TNF” value (human monocytes) was “+++ (+++ indicates maximal inhibitory activity of 75-100% of control)” and the IC50 ([3]; Homo sapiens, 3 h, read-out: hCaSMC IC50 Mean ± SEM) was 9.3 nM. For the same molecule, the “inhibition of hCaSMC proliferation” value ([3]; dexamethasone alone at or above 10 nM) was “N.D.* Not detectable: Concentrations of dexamethasone alone at or above 10 nM inhibit proliferation by greater than 50% preventing calculation of zotarolimus IC50's in these experiments”, the “Maximal Inhibitory Activity, IL-6” value [4] was “− (− indicates maximal inhibitory activity less than 50% of control)” and the “Maximal Inhibitory Activity, Il-8” value [4] was “− (− indicates maximal inhibitory activity less than 50% of control)”. The “Maximal Inhibitory Activity, MCP-1” value [4] was “− (− indicates maximal inhibitory activity less than 50% of control)”, the “effect on proliferation of hCaEC” value ([5]; FIG. 13) was “does not affect the proliferation of hCaEC” and the IC50 ([5]; Homo sapiens, Endothelial cell, 3 h, read-out: hCaEC IC50 Mean ± SEM) was over 10000 nM. The “burst release at the beginning of elution” value ([6]; stent with 10 μg/mm each drug, 5 μg/mm PC-1036 topcoat, 10 mM acetate buffer pH 4.0, 1% Solutol HS 15, 37° C., 24-hour profile) was “slightly larger burst release at the beginning than zotarolimus” and the “effect on the elution profile of zotarolimus” value ([6]; zotarolimus alone vs in the presence of dexamethasone, same conditions) was “little effect on the elution profile of zotarolimus”.
In the case of COC1CC2CCC(C)C(O)(O2)C(=O)C(=O)N2CCCCC2C(=O)OC(C(C)CC2CCC(n3ccc(=O)cc3)C(OC)C2)CC(=O)C(C)C=C(C)C(O)C(OC)C(=O)C(C)CC(C)C=CC=CC=C1C (stereo not drawn) [Example 4-pyridone, 40-epi-N-[4′-pyridone]-rapamycin], the AUC [1] is reported as 5.59 ng·h/mL.
With CO[C@H]1C[C@@H]2CC[C@@H](C)[C@@](O)(O2)C(=O)C(=O)N2CCCC[C@H]2C(=O)O[C@H]([C@H](C)C[C@@H]2CC[C@@H](O)[C@H](OC)C2)CC(=O)[C@H](C)/C=C(\C)[C@@H](O)[C@@H](OC)C(=O)[C@H](C)C[C@H](C)/C=C/C=C/C=C/1C [Rapamycin] the “Maximal Inhibitory Activity, IL-6” value [2] was “− (− indicates maximal inhibitory activity less than 50% of control)”, the “Maximal Inhibitory Activity, Il-8” value [2] was “− (− indicates maximal inhibitory activity less than 50% of control)” and the “Maximal Inhibitory Activity, MCP-1” value [2] was “− (− indicates maximal inhibitory activity less than 50% of control)”. For the same molecule, the “MCP-1 production by human monocytes in vitro” value (human monocytes) was “dose-dependently inhibit MCP-1 production”, the “production of TNFα and IL-6 by human monocytes” value (human monocytes) was “not demonstrated” and the “Maximal Inhibitory Activity, IL-6” value (human monocytes) was “− (− indicates maximal inhibitory activity less than 50% of control)”. For the same molecule, the “Maximal Inhibitory Activity, MCP-1” value (human monocytes) was “+++ (+++ indicates maximal inhibitory activity of 75-100% of control)”, the “Maximal Inhibitory Activity, TNF” value (human monocytes) was “− (− indicates maximal inhibitory activity less than 50% of control)” and the “Maximal Inhibitory Activity, IL-6” value [4] was “− (− indicates maximal inhibitory activity less than 50% of control)”. For the same molecule, the “Maximal Inhibitory Activity, Il-8” value [4] was “− (− indicates maximal inhibitory activity less than 50% of control)” and the “Maximal Inhibitory Activity, MCP-1” value [4] was “− (− indicates maximal inhibitory activity less than 50% of control)”.
With C=CC[C@@H]1/C=C(\C)C[C@H](C)C[C@H](OC)[C@H]2O[C@@](O)(C(=O)C(=O)N3CCCC[C@H]3C(=O)O[C@H](/C(C)=C/[C@@H]3CC[C@@H](O)[C@H](OC)C3)[C@H](C)[C@@H](O)CC1=O)[C@H](C)C[C@@H]2OC [tacrolimus] the “effect on the antiproliferative activity of zotarolimus in hCaSMC” value ([3]; tacrolimus 100 nM) was “increased the IC50 of zotarolimus” and the “effect on the antiproliferative activity of zotarolimus in hCaSMC” value ([3]; tacrolimus 250 nM or greater, zotarolimus 4 nM) was “completely blocked the activity of zotarolimus”.
